Source: patent publication US9029337B2, “Modulation of factor 7 expression” (Isis Pharmaceuticals, Inc., priority 2007, dated 2015)
Strand notation (5' to 3'): a small letter for the sugar, then the base; units joined by * are phosphorothioate-linked, units joined directly phosphodiester-linked; [ ] holds rarer units or linkages, { } end groups; capitals alone tell only the bases. e = 2'-O-(2-methoxyethyl) (MOE); [5mC] = 5-methylcytosine; d = 2'-deoxy (DNA)

These substances were tested on human Factor 7 mRNA (assay: Antisense inhibition of human Factor 7 with short (14-mer) oligonucleotides in HepB3 cells, electroporation 1,000 nM). Conditions: electroporation, 1,000 nM antisense oligonucleotide, approximately 24 hours, Factor 7 mRNA relative to untreated control cells.
Format: cell-based
Outline: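 14-mer 2-10-2 MOE gapmers (full phosphorothioate, 5-methyl-C) electroporated at 1,000 nM into HepB3 cells at 20,000 cells/well. After ~24 h, Factor 7 mRNA by real-time RT-PCR, normalized to RiboGreen total RNA. Reported as % inhibition relative to untreated cells.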

| Substance | % Inhibition [%] |
| --- | --- |
| 435734 (antisense eA*eT*dG*d[5mC]*dT*dT*d[5mC]*dT*dG*dA*dA*dT*eT*eG) [compound 435734] | 16 |
| 435487 (antisense eA*eG*dT*d[5mC]*d[5mC]*dT*dG*dG*dG*dT*d[5mC]*dA*eT*e[5mC]) [compound 435487] | 36 |
| 435724 (antisense e[5mC]*eT*dG*dA*dG*dG*d[5mC]*d[5mC]*dA*dG*d[5mC]*dA*eG*eA) [compound 435724] | 52 |
| 435642 (antisense eA*e[5mC]*dA*d[5mC]*dT*dG*dG*dT*d[5mC]*d[5mC]*d[5mC]*d[5mC]*eA*eT) [compound 435642] | 60 |
| 435718 (antisense eG*e[5mC]*dT*d[5mC]*dG*d[5mC]*dA*dG*dG*dA*dG*dG*eA*e[5mC]) [compound 435718] | 26 |
| 435777 (antisense e[5mC]*eT*dG*dA*dG*dG*dA*dT*dG*d[5mC]*dA*dG*eG*e[5mC]) [compound 435777] | 53 |
| 435503 (antisense eT*eG*dT*dA*d[5mC]*dT*dG*dG*dG*dA*dG*dA*e[5mC]*e[5mC]) [compound 435503] | 17 |
| 435683 (antisense eA*eT*dG*dT*d[5mC]*dG*dT*dG*dG*dT*dT*dG*eG*eT) [compound 435683] | 3 |
| 435638 (antisense eA*eG*d[5mC]*d[5mC]*d[5mC]*dT*dG*dA*dA*dG*d[5mC]*d[5mC]*e[5mC]*eA) [compound 435638] | 55 |
| 435488 (antisense e[5mC]*eA*dG*dT*d[5mC]*d[5mC]*dT*dG*dG*dG*dT*d[5mC]*eA*eT) [compound 435488] | 17 |
| 435714 (antisense eA*e[5mC]*dT*d[5mC]*dG*dA*dT*dG*dT*dA*d[5mC]*dT*eG*eG) [compound 435714] | 3 |
| 435794 (antisense eG*eA*dG*dG*dT*dA*d[5mC]*dA*d[5mC]*dA*dG*dG*e[5mC]*eT) [compound 435794] | 26 |
| 435756 (antisense eT*eG*d[5mC]*d[5mC]*d[5mC]*dA*dG*dG*dA*d[5mC]*dG*dG*e[5mC]*e[5mC]) [compound 435756] | 20 |
| 435767 (antisense e[5mC]*eA*d[5mC]*d[5mC]*dA*dA*dG*dT*dT*dT*dA*dT*eG*eG) [compound 435767] | 0 |
| 435769 (antisense eT*eT*d[5mC]*dT*dT*dT*dG*dA*dA*dA*dA*dA*eT*eA) [compound 435769] | 0 |
| 435691 (antisense e[5mC]*eA*dG*d[5mC]*d[5mC]*dG*d[5mC]*dT*dG*dA*d[5mC]*d[5mC]*eA*eA) [compound 435691] | 25 |
| 435649 (antisense eA*eG*dG*d[5mC]*dA*dG*dA*dA*dG*d[5mC]*dA*dG*eA*eT) [compound 435649] | 21 |
| 435661 (antisense eG*eG*dA*d[5mC]*dA*d[5mC]*d[5mC]*d[5mC]*d[5mC]*dG*dT*d[5mC]*eT*eG) [compound 435661] | 18 |
| 435736 (antisense eA*eT*dG*d[5mC]*dA*dT*dG*dG*dT*dG*dA*dT*eG*e[5mC]) [compound 435736] | 50 |
| 435829 (antisense eG*eG*dG*dT*dA*dG*dA*d[5mC]*d[5mC]*d[5mC]*dT*d[5mC]*eA*eG) [compound 435829] | 18 |

| Substance | % Inhibition [%] |
| --- | --- |
| 435719 (antisense e[5mC]*eA*dG*d[5mC]*d[5mC]*dT*dT*dG*dG*d[5mC]*dT*dT*eT*e[5mC]) [compound 435719] | 50 |
| 435837 (antisense e[5mC]*eT*d[5mC]*dG*d[5mC]*d[5mC]*dT*dG*dG*dA*dA*dG*eG*eA) [compound 435837] | 37 |
| 435666 (antisense eG*eG*dT*dT*dT*dG*d[5mC]*dT*dG*dG*d[5mC]*dA*eT*eT) [compound 435666] | 71 |
| 435811 (antisense eG*eT*dG*dG*dT*d[5mC]*dA*dA*dG*dG*dA*dT*eG*eA) [compound 435811] | 27 |
| 435783 (antisense eA*eA*dA*d[5mC]*d[5mC]*dG*dG*d[5mC]*dA*dT*dG*d[5mC]*eG*e[5mC]) [compound 435783] | 49 |
| 435849 (antisense eT*eG*d[5mC]*d[5mC]*dG*dT*dA*dG*dT*dG*dG*d[5mC]*e[5mC]*eG) [compound 435849] | 31 |
| 435818 (antisense eG*eT*d[5mC]*dA*dT*d[5mC]*d[5mC]*dT*dT*dG*dT*d[5mC]*eT*eG) [compound 435818] | 43 |
| 435802 (antisense eG*eT*d[5mC]*dA*d[5mC]*d[5mC]*dT*dA*dG*dA*d[5mC]*d[5mC]*eA*eA) [compound 435802] | 61 |
| 435655 (antisense eA*e[5mC]*dA*dG*d[5mC]*d[5mC]*dG*d[5mC]*d[5mC]*dG*dT*dT*e[5mC]*eT) [compound 435655] | 49 |
| 435766 (antisense eG*e[5mC]*dA*d[5mC]*d[5mC]*dT*dG*d[5mC]*dA*dG*d[5mC]*d[5mC]*eA*eG) [compound 435766] | 51 |
| 435838 (antisense eT*e[5mC]*d[5mC]*dA*dT*dG*dG*dA*d[5mC]*dA*d[5mC]*dT*eA*eA) [compound 435838] | 29 |
| 435744 (antisense e[5mC]*eT*dA*d[5mC]*dA*dG*d[5mC]*d[5mC]*dT*d[5mC]*dA*dA*eA*e[5mC]) [compound 435744] | 19 |
| 435482 (antisense eT*eG*dG*dG*dT*d[5mC]*dA*dT*d[5mC]*dA*dG*d[5mC]*e[5mC]*eG) [compound 435482] | 62 |
| 435843 (antisense eG*e[5mC]*dT*dG*dG*dA*dG*d[5mC]*dT*dG*dA*dG*e[5mC]*e[5mC]) [compound 435843] | 0 |
| 435643 (antisense e[5mC]*eT*dT*dG*d[5mC]*dA*dG*dG*dA*dG*d[5mC]*d[5mC]*e[5mC]*e[5mC]) [compound 435643] | 51 |
| 435788 (antisense e[5mC]*e[5mC]*dT*dG*dT*dG*dA*dG*dT*dG*dT*dG*eA*eG) [compound 435788] | 20 |
| 435764 (antisense eT*eG*dA*dG*dA*dG*d[5mC]*dT*dG*d[5mC]*dA*d[5mC]*e[5mC]*eT) [compound 435764] | 8 |
| 435652 (antisense e[5mC]*eT*dG*dG*dT*d[5mC]*dA*dT*d[5mC]*d[5mC]*dT*dT*eG*eT) [compound 435652] | 48 |
| 435730 (antisense eT*eA*dA*dA*d[5mC]*dA*dA*d[5mC]*d[5mC]*dG*d[5mC]*d[5mC]*eT*eT) [compound 435730] | 49 |
| 435486 (antisense eG*eT*d[5mC]*d[5mC]*dT*dG*dG*dG*dT*d[5mC]*dA*dT*e[5mC]*eA) [compound 435486] | 64 |

| Substance | % Inhibition [%] |
| --- | --- |
| 435798 (antisense eA*eG*d[5mC]*d[5mC]*dA*dG*dA*d[5mC]*dT*dT*dT*d[5mC]*e[5mC]*eT) [compound 435798] | 54 |
| 435842 (antisense eA*eT*dT*dT*d[5mC]*d[5mC]*d[5mC]*dA*dT*dT*dG*dG*e[5mC]*eA) [compound 435842] | 0 |
| 435689 (antisense eT*eT*d[5mC]*dG*dG*dG*d[5mC]*dA*dG*dG*d[5mC]*dA*eG*eA) [compound 435689] | 23 |
| 435725 (antisense eG*e[5mC]*dA*dG*d[5mC]*d[5mC]*dT*dG*dA*dG*dG*d[5mC]*e[5mC]*eA) [compound 435725] | 79 |
| 435834 (antisense eT*eG*dA*d[5mC]*dA*dG*d[5mC]*dA*d[5mC]*dG*dA*dA*eG*e[5mC]) [compound 435834] | 20 |
| 435745 (antisense eG*eG*dG*dA*dG*d[5mC]*dT*dA*d[5mC]*dA*dG*d[5mC]*e[5mC]*eT) [compound 435745] | 0 |
| 435784 (antisense e[5mC]*e[5mC]*dT*dA*dA*dG*dT*dG*dT*dG*d[5mC]*dT*eT*eT) [compound 435784] | 17 |
| 435833 (antisense eA*eG*dA*d[5mC]*dA*d[5mC]*dT*dT*dG*dA*dG*dA*eG*e[5mC]) [compound 435833] | 24 |
| 435752 (antisense eT*eG*d[5mC]*dA*dG*d[5mC]*dT*dT*dG*d[5mC]*d[5mC]*dA*eG*eG) [compound 435752] | 12 |
| 435841 (antisense e[5mC]*eT*d[5mC]*dG*dG*dA*d[5mC]*dA*dA*dA*dA*dG*eA*eG) [compound 435841] | 1 |
| 435491 (antisense e[5mC]*e[5mC]*d[5mC]*dT*dG*dG*dT*dG*dT*dA*d[5mC]*dA*e[5mC]*e[5mC]) [compound 435491] | 61 |
| 435785 (antisense eA*eG*d[5mC]*dT*dT*d[5mC]*dT*d[5mC]*dA*d[5mC]*d[5mC]*dA*e[5mC]*eG) [compound 435785] | 46 |
| 435681 (antisense eA*eT*dG*dA*d[5mC]*d[5mC]*dT*dG*d[5mC]*dG*d[5mC]*d[5mC]*eA*e[5mC]) [compound 435681] | 40 |
| 435667 (antisense eA*eA*dT*dT*d[5mC]*dG*dG*d[5mC]*d[5mC]*dT*dT*dG*eG*eG) [compound 435667] | 16 |
| 435768 (antisense eG*e[5mC]*d[5mC]*dT*dG*dG*dA*dT*dG*d[5mC]*dT*dG*eG*eT) [compound 435768] | 75 |
| 435742 (antisense eA*eT*dG*dT*dG*dA*dG*dG*dG*dT*dT*d[5mC]*eA*eT) [compound 435742] | 11 |
| 435733 (antisense e[5mC]*eT*dG*dA*dA*dT*dT*dG*dT*d[5mC]*dT*dG*eA*eA) [compound 435733] | 5 |
| 435489 (antisense e[5mC]*eT*dG*dG*dT*dG*dT*dA*d[5mC]*dA*d[5mC]*d[5mC]*e[5mC]*e[5mC]) [compound 435489] | 72 |
